From patent US20110178456A1, “ASSISTING TRANSDERMAL DRUG DELIVERY BY MEANS OF TISSUE FREEZING, VACUUM PRESSURE AND PHOTOHEATING PROCEDURES” (THE REGENTS OF THE UNIVERSITY OF CALIFORNIA, priority 2009, published 2011)

Columns and labels:
[1] = assay type: in vitro ADME, pork
Protocol: A study comprising applying conjugated FITC-Dextran with 4000 Daltons molecular weight as a surrogate of water-soluble drugs on ex vivo pork skin samples was performed. Thermoelectric coolers and other cooling devices can be used as well. In these experiments […] was used as the cryogenic agent. Exposure time can range from minutes to millisecond exposures, depending on the type of coolant used. […] For applying suction, any method of creating suction or positive pressure on the skin can be used. For example, the Isolaze device from […] can be used to apply a suction of 380 mm Hg. To investigate this, a study was initiated consisting of applying conjugated FITC-Dextran with 4000 Daltons molecular weight as a surrogate of water-soluble drugs on ex vivo pork skin samples. After exposing skin samples for 30 min to 3 hours after topical application, a cross-sections of skin was cut ( 20 microns thick) to observe directly the Dextran penetration via the intensity of the FITC fluorescence with the aid of a confocal fluorescent microscope.

[2] = Case clinical study: penetration after topical application with cryo-cracking versus simple rubbing; assay type: in vivo; conditions: 3 hrs after topical application using cryo-cracking procedure
From the text: This study also included FITC with Dextran of 4 kDa and 70 kDA.

transdermal delivery of drug surrogate using the cryo-cracking process [1]	penetration into the stratum corneum and epidermis down the microcracks, compared to penetration after simple rubbing [2]	Molecule
delivered	–	Dylight
effectively delivered	much more significant	O=C1OC2(c3ccc(O)cc3Oc3cc(O)ccc32)c2ccc(N=C=S)cc21 [FITC]
